In series [1] the test system is bloodstream form T. brucei brucei. Put plainly: T. b. brucei whole cell parasite (trypanosome growth) assay. It counts as cell-based, Trypanosoma brucei brucei. The procedure: This was conducted as previously described.[27] Cell culture plates were stamped with 1 μL of an appropriate stock concentration of test compound, followed by addition of 200 μL of trypanosome culture (HMI9-T, 10% FCS) to each well at a density of 2000 cells per well (except column 12 receiving media only). […] Potency was carried out using 10-point dose–response curves.

Series [2] in a line: Microsomal intrinsic clearance (Clint), mouse. It counts as in vitro ADME. To be noted: mouse liver microsomes, 0.5 μM compound. The procedure:
Each test compound (0.5 μM) was incubated with pooled female CDI mouse liver microsomes, pooled male Sprague–Dawley rat microsomes, or pooled mixed gender human liver microsomes (Tebu-Bio, UK; 0.5 mg/mL 50 mM potassium phosphate buffer, pH 7.4) and the reaction started with addition of excess NADPH (8 mg/mL, 50 mM potassium phosphate buffer, pH 7.4). Immediately, at time zero, then at 3, 6, 9, 15, and 30 min, an aliquot (50 μL) of the incubation mixture was removed and mixed with acetonitrile (100 μL) to stop the reaction. Internal standard was added to all samples, and the samples were centrifuged at 1825g for 10 min to sediment precipitated protein. The plates were then sealed prior to UPLC/MS/MS analysis using a Quattro Premier XE (Waters Corporation, USA).
XLfit (IDBS, UK) was used to calculate the exponential decay and consequently the rate constant (k) from the ratio of peak area of test compound to internal standard at each time point.

Series [3] in a line: Aqueous kinetic solubility by laser nephelometry. The settings on record: aqueous medium, Table 7. It counts as physicochemical. The procedure: (§1) The software package StarDrop by Optibrium was used to calculate physicochemical parameters including log P, molecular weight, and polar surface area (PSA). The aqueous kinetic solubility of the compounds was measured using laser nephelometry as previously described.[40] The plasma protein binding of the compounds was determined by the equilibrium dialysis method.[12]

Series [4] is described as follows: Plasma protein binding by equilibrium dialysis, mouse. The format is in vitro ADME. To be noted: read-out: plasma protein binding, Fu (fraction unbound). The procedure:
as §1

The nature of series [5]: Brain tissue binding by equilibrium dialysis. It counts as in vitro ADME. The settings on record: Sprague-Dawley, brain homogenate; rat (male SD rat); read-out: brain tissue binding (rat), Fu. The procedure: In brief, a 96-well equilibrium dialysis apparatus was used to determine the free fraction in the brain for the test compound (HT Dialysis LLC, Gales Ferry, CT). Membranes (12–14 kDa A cutoff) were conditioned in deionized water for 60 min, followed by conditioning in 80:20 deionized water:ethanol for 20 min and then rinsed in artificial cerebrospinal fluid (CSF) before use. Mouse brain was removed from the freezer and allowed to thaw on the day of experiment. […] Diluted brain homogenate was spiked with the test compound (10 ug/g), and 150 μL aliquots (n = 6 replicate determinations) loaded into the 96-well equilibrium dialysis plate. Dialysis vs artificial CSF (150 μL) was carried out for 5 h in a temperature controlled incubator at ca. 37 °C (Stuart scientific Ltd., UK) using an orbital microplate shaker at 125 rpm (Stuart scientific Ltd., UK). […] All samples were analyzed by means of UPLC/MS/MS on a Quattro Premier XE mass spectrometer (Waters Corporation, USA). The unbound fraction was determined as the ratio of the peak area in artificial CSF to that in brain, with correction for dilution factor according to eq 1.[42] […] 1 where D = dilution factor in brain homogenate and Fu,apparent is the measured free fraction of diluted brain homogenate.

Series [6] is described as follows: In vivo mouse pharmacokinetics. The settings on record: for Cmax / Tmax / half-life / AUC(0-t) at 8 h / AUC(0-t): female, mouse, in vivo, 10 mg/kg, NMRI mice; for AUC(0-t) at 8 h: read-out: AUC0–8; for AUC(0-t): read-out: AUC0–8 (converted). The procedure: Each compound was dosed as a bolus solution intraperitoneally at 10 mg free base/kg (dose volume, 10 mL/kg; dose vehicles used, 10% DMSO; 40% PEG400; 50% Milli-Q water or 5% DMSO; 40% PEG400; 55% saline) to female HRN (1 only) or NMRI mice (n = 3) or dosed orally by gavage as a solution at 10 mg free base/kg (dose volume, 10 mL/kg; dose vehicle, 10% DMSO; 40% PEG400; 50% Milli-Q water) to female NMRI mice (n = 3). Female NMRI mice were chosen, as these represent the sex and strain used for the stage 1 and stage 2 HAT efficacy models. Blood samples were taken from each mouse at 5 (IP only), 15, and 30 min, 1, 2, 4, 6, and 8 h post dose, mixed with two volumes of distilled water, and stored frozen until UPLC/MS/MS analysis. Pharmacokinetic parameters were derived from noncompartmental analysis of the blood concentration time curve using PK solutions software v 2.0 (Summit Research Services, USA).

The subject of series [7] is panel of receptors, including dopamine, serotonin, histamine, and muscarinic receptors. Put plainly: NIMH Psychoactive Drug Screening Program (PDSP) receptor panel. The format is binding. The settings on record: significant inhibition is considered > 50%. The text has this: However, the observed toxicity prevents further progression of the compounds. To try and identify a possible driver for toxicity, that may then offer an opportunity to design out this unwanted effect, the key compounds were screened against a panel of receptors at the NIMH Psychoactive Drug Screening Program (PDSP).[36],[37] No significant activity against a large panel of receptors, including dopamine, serotonin, histamine, and muscarinic receptors (see Supporting Information) was observed.
S2: Details of receptors screened at the NIMH Psychoactive Drug Screening Program […]
receptors screened. Significant inhibition is considered > 50%. In cases where negative inhibition (-) is seen, this represents a stimulation of binding. The receptors screened were 5- […]
HT7, Alpha1A, Alpha1B, Alpha1D, Alpha2A, Alpha2B, Alpha2C, Beta1, Beta2, Beta3, BZP rat Brain site, D1, D2, D3, D4, D5, DAT, DOR, GABBA, H1, H2, H3, KOR, M1, M2, M3, M4, M5, MOR, NET, PBR, SERT, Sigma1 and Sigma2

A short description of series [8]: Maximum tolerated dose (MTD) studies.

SMILES strings stand for the structures. pEC50: −log10 of the molar value. ≈ marks a conversion by molar mass, not a printed value. Where “and” joins values, the source holds several entries; their conditions need not be identical. Identical values can stand only once. Like-named read-outs stand apart in the source and are kept apart here.

The compound `CNC(=O)[C@H]1Cc2ccccc2N1C(=O)Cc1ccc(F)cc1` [Compound 47, (R)-1-(2-(4-Fluorophenyl)acetyl)-N-methylindoline-2-carboxamide] had a Hill slope in series [1] (T. brucei EC50 curve) of 2.8. Further, the pEC50 in series [1] (Trypanosoma brucei, mean of two or more determinations, 69 h + 4 h resazurin, read-out: T. b. brucei EC50) was 7.30. Also, the “mouse microsomal intrinsic clearance” value in series [2] was 1.9 mL min^–1 g^–1 and 1.9/ND mL min^–1 g^–1. The same compound yielded a solubility in series [3] of 64 µg/mL (≈ 205 µM). Moreover, the fraction unbound in series [4] was 0.59. Further, the fraction unbound at 5 h, 10 ug/g in series [5] turned out to be 0.43. The “higher AUC compared to 1” value in series [6] (IP, female NMRI mice) was 1.5–6.5 fold. In series [6] (IP), the Cmax was 2300 ng/mL and 7.4 µM; the Tmax turned out to be 15 min; the half-life was 30 min; the AUC(0-t) at 8 h was 9.1 µM·h. The AUC(0-t) in series [6] (IP) was 2830 ng·h/mL. Besides, in series [6] (PO), the Cmax is 750 ng/mL and 2.4 µM; the Tmax was 30 min; the half-life was 36 min; the AUC(0-t) at 8 h stood at 3.3 µM·h. For the same compound, in series [6] (PO), the AUC(0-t) is 1020 ng·h/mL. Further, in series [7], the “inhibition against receptors screened” value was “did not show significant inhibitor”. Moreover, the tolerability result in series [8] (15 mg/kg IP b.i.d., female NMRI mice (47: for 3 days)) is “well tolerated”. In addition, in series [8] (25 mg/kg after a single dose, female NMRI mice), the tolerability entry is “clinical signs of toxicity”.

These data come from paper PMC4601051, “Discovery of Indoline-2-carboxamide Derivatives as a New Class of Brain-Penetrant Inhibitors of Trypanosoma brucei” (Journal of Medicinal Chemistry, 2015).
